Read-outs that look alike come from different tables or passages of the source.
Tests used:
[1] = biological target: Human Cot (Homo sapiens (Human), UniProt P41279); assay: High Throughput Cot Biochemical Assay
[2] = test system: TNFα; assay: Cot Monocyte TNFα Cell Based Assay
Experimental: The cell suspension was then plated at a density of 5,000 cells/well onto black 384 well Greiner clear bottom plates. Plates were pre-spotted with test compounds and serially diluted in DMSO where 200 nL/well were delivered using the Echo 550 acoustic liquid dispenser (Labcyte®) for a final DMSO concentration of 0.5%. Plated cells were treated with compound for 1 hour at 37° C. Cells were then stimulated with 50 pg/ml of LPS (Sigma) excluding outside columns of plate used for unstimulated cell control wells. Cells were incubated for an additional 4 hours at 37° C. Cells were then spun out of the media and 5 μl of sample were taken and analyzed for total TNFα content using the TR-FRET Human TNFα detection system (CisBio). This system utilizes two labeled antibodies (cryptate and XL665) that bind to two different epitopes of the TNFα molecule and produce FRET signal proportional to the concentration of TNFα in the sample. […] Plates were covered with clear seals and incubated at room temp overnight. […] Percent of control was calculated as follows: % Control=100×(RatioSample−Ratio0% Stimulation)/(Ratio100% Stimulation−Ratio0% Stimulation) where unstimulated cells (0% stimulation) were the negative control and stimulated cells (100% stimulation) were used as the positive control.

[3] = IC50 HTRF, Cot HTRF (TR-FRET) biochemical assay
[4] = Homo sapiens, Monocyte, read-out: EC50 TNF, LPS-stimulated human monocytes, TNFα
[5] = read-out: IC50 HTRF, Cot HTRF (TR-FRET) biochemical assay
[6] = IC50 HTRF, Cot HTRF (TR-FRET KinEASE) biochemical assay, 400 μM ATP
[7] = Homo sapiens, Monocyte, read-out: EC50 TNF, LPS-stimulated human monocytes, TNFα TR-FRET

Chain of Human Cot (P41279 30-397): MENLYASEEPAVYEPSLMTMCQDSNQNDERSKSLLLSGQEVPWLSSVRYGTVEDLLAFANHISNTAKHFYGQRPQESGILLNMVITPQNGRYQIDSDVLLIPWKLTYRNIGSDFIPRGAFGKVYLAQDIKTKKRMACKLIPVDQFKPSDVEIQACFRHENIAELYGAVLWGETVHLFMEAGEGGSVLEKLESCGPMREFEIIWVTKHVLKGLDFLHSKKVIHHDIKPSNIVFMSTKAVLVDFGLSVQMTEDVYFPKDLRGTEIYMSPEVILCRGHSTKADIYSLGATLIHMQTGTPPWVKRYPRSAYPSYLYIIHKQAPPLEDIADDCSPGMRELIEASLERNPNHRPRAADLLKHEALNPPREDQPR

Row | SMILES | IC50 [1, 3] [µM] | EC50 [2, 4] [µM] | IC50 [1, 6] [µM] | EC50 [2, 7] [µM] | further results
1 | Cn1ccc2c([C@H](Nc3cc(Cl)c4ncc(C#N)c(NCC(C)(C)C)c4c3)c3cn(C45CC(C4)C5)nn3)cccc2c1=O [Example 713, (S)-6-(((1-(bicyclo[1.1.1]pentan-1-yl)-1H-1,2,3-triazol-4-yl)(2-methyl-1-oxo-1,2-dihydroisoquinolin-5-yl)methyl)amino)-8-chloro-4-(neopentylamino)quinoline-3-carbonitrile] | 0.002 | 0.021 |  |  | 
2 | Cn1ncc2c([C@H](Nc3cc(C#N)c4ncc(C#N)c(NCC(C)(C)C)c4c3)c3cn(C4(C)CC4)nn3)cccc21 [Example 529, (S)-6-(((1-methyl-1H-indazol-4-yl)(1-(1-methylcyclopropyl)-1H-1,2,3-triazol-4-yl)methyl)amino)-4-(neopentylamino)-quinoline-3,8-dicarbonitrile] | 0.002 | 0.05 |  |  | 
3 | N#Cc1cnc2c(Cl)cc(NC(c3ccccn3)c3ccccn3)cc2c1Nc1ccc(F)c(Cl)c1 [Example 377, 8-chloro-4-((3-chloro-4-fluoro-phenyl)amino)-6-((di(pyridin-2-yl)methyl)amino)quinoline-3-carbonitrile] |  | > 1 |  |  | IC50 [1, 5]: 0.398 µM
4 | CC(C)(C)CNc1c(C#N)cnc2c(C#N)cc(N[C@H](c3cn(C4(C(F)(F)F)CC4)nn3)c3cccc4[nH]ncc34)cc12 [Example 472, (S)-6-(((1H-indazol-4-yl)(1-(1-(trifluoro-methyl)cyclopropyl)-1H-1,2,3-triazol-4-yl)methyl)amino)-4-(neopentylamino)-quinoline-3,8-dicarbonitrile] | 0.004 | 0.078 |  |  | 
5 | Cc1nc(F)ccc1[C@H](Nc1cc(C#N)c2ncc(C#N)c(NCC34CC(C3)C4)c2c1)c1cn(C2(C(F)(F)F)CC2)nn1 [Example 848, (S)-4-((bicyclo[1.1.1]pentan-1-ylmethyl)amino)-6-(((6-fluoro-2-methylpyridin-3-yl)(1-(1-(trifluoromethyl)cyclopropyl)-1H-1,2,3-triazol-4-yl)methyl)amino)quinoline-3,8-dicarbonitrile] |  |  | 0.031 | 0.247 | 
6 | CC(C)(C)CNc1c(C#N)cnc2c(C#N)cc(N[C@H](c3cn(C4(C)CC4)nn3)c3cccc4ncsc34)cc12 [Example 435, (S)-6-((benzo[d]thiazol-7-yl(1-(1-methylcyclopropyl)-1H-1,2,3-triazol-4-yl)methyl)amino)-4-(neopentylamino)-quinoline-3,8-dicarbonitrile] | 0.001 | 0.024 |  |  | 
7 | Cc1nc(F)ccc1[C@H](Nc1cc(Cl)c2ncc(C#N)c(NCC(C)(C)C)c2c1)c1cn(CCCO)nn1 [Example 986, (S)-8-chloro-6-(((6-fluoro-2-methylpyridin-3-yl)(1-(3-hydroxypropyl)-1H-1,2,3-triazol-4-yl)methyl)amino)-4-(neopentylamino)quinoline-3-carbonitrile] |  |  | 0.005 | 0.141 | 
8 | CN1Cc2cccc([C@H](Nc3cc(C#N)c4ncc(C#N)c(NCC(C)(C)C)c4c3)c3cn(C4CC4)nn3)c2C1=O [Example 77, (S)-6-(((1-cyclopropyl-1H-1,2,3-triazol-4-yl)(2-methyl-3-oxoisoindolin-4-yl)methyl)amino)-4-(neopentylamino)quinoline-3,8-dicarbonitrile] | 0.003 | 0.154 |  |  | 
9 | COc1ccc([C@H](Nc2cc(Cl)c3ncc(C#N)c(NCC(C)(C)C)c3c2)c2cn(C3(C(F)F)CC3)nn2)c(C)n1 [Example 729, (S)-8-chloro-6-(((1-(1-(difluoromethyl)cyclopropyl)-1H-1,2,3-triazol-4-yl)(6-methoxy-2-methylpyridin-3-yl)methyl)amino)-4-(neopentylamino)quinoline-3-carbonitrile] | 0.005 | 0.108 |  |  | 
10 | CC(C)(C)CNc1c(C#N)cnc2c(Br)cc(N[C@H](c3cn(C4CC4)nn3)c3cccc4nc(N)sc34)cc12 [Example 70, (S)-6-(((2-aminobenzo[d]thiazol-7-yl)(1-cyclopropyl-1H-1,2,3-triazol-4-yl)methyl)amino)-8-bromo-4-(neopentylamino)quinoline-3-carbonitrile] | 0.019 | 0.804 |  |  | 
11 | Cc1nc(F)ccc1[C@H](Nc1cc(C#N)c2ncc(C#N)c(NCC3(C(F)(F)F)CCC3)c2c1)c1cn(C2(C(F)F)CC2)nn1 [Example 831, (S)-6-(((1-(1-(difluoromethyl)-cyclopropyl)-1H-1,2,3-triazol-4-yl)(6-fluoro-2-methylpyridin-3-yl)methyl)amino)-4-(((1-(trifluoromethyl)cyclobutyl)methyl)-amino)quinoline-3,8-dicarbonitrile] |  |  | 0.008 | 0.202 | 
12 | CC(C)(C)N1CCC(n2cc([C@@H](Nc3cc(Cl)c4ncc(C#N)c(Nc5ccc(F)c(Cl)c5)c4c3)c3cncs3)nn2)CC1 [Example 370] |  |  |  |  | IC50 [1, 5]: 0.008 µM; EC50 ([2]; read-out: EC50 TNF, LPS-stimulated human monocytes, TNFα): 0.232 µM
13 | Cc1nc(F)ccc1[C@H](Nc1cc(Cl)c2ncc(C#N)c(NCC(C)(C)C)c2c1)c1nnn(C2(C(F)F)CC2)c1C#N [Example 974, (S)-8-chloro-6-(((5-cyano-1-(1-(difluoromethyl)cyclopropyl)-1H-1,2,3-triazol-4-yl)(6-fluoro-2-methylpyridin-3-yl)methyl)amino)-4-(neopentylamino)quinoline-3-carbonitrile] |  |  | 0.011 | 0.06 | 
14 | COc1c(C(Nc2cc(Cl)c3ncc(C#N)c(NCC(C)(C)C)c3c2)c2ccc(F)nc2C)nnn1C (stereo not drawn) [Example 971, 8-chloro-6-(((6-fluoro-2-methylpyridin-3-yl)(5-methoxy-1-methyl-1H-1,2,3-triazol-4-yl)methyl)amino)-4-(neopentylamino)quinoline-3-carbonitrile] |  |  | 0.011 | 0.301 | 
15 | N#Cc1cnc2c(Cl)cc(N[C@@H](c3cccnc3)c3c[nH]nn3)cc2c1N[C@H](CCO)c1ccccc1 [Example 179, 8-chloro-4-(((R)-3-hydroxy-1-phenylpropyl)amino)-6-(((S)-pyridin-3-yl(1H-1,2,3-triazol-4-yl)methyl)amino)quinoline-3-carbonitrile] | 0.265 | > 10 |  |  | 
16 | CC[C@@H](Nc1c(C#N)cnc2c(Cl)cc(N[C@@H](c3cccnc3)c3cn(CCCN4CCCC4)nn3)cc12)c1ccccc1 [Example 176, 8-chloro-4-(((R)-1-phenylpropyl)amino)-6-(((S)-pyridin-3-yl(1-(3-(pyrrolidin-1-yl)propyl)-1H-1,2,3-triazol-4-yl)methyl)amino)quinoline-3-carbonitrile] | 0.002 | 0.031 |  |  | 
17 | Cc1nnc(C2(n3cc([C@@H](Nc4cc(Cl)c5ncc(C#N)c(NCC(C)(C)C)c5c4)c4ccc(F)nc4C)nn3)CC2)o1 [Example 806, (S)-8-chloro-6-(((6-fluoro-2-methylpyridin-3-yl)(1-(1-(5-methyl-1,3,4-oxadiazol-2-yl)cyclopropyl)-1H-1,2,3-triazol-4-yl)methyl)amino)-4-(neopentylamino)quinoline-3-carbonitrile] |  |  | 0.003 | 0.028 | 
18 | CC(C)(C)CNc1c(C#N)cnc2c(Cl)cc(N[C@H](c3cn(C4(C(F)(F)F)CC4)nn3)c3cccc4ncccc34)cc12 [Example 461, (S)-8-chloro-4-(neopentylamino)-6-((quinolin-5-yl(1-(1-(trifluoromethyl)-cyclopropyl)-1H-1,2,3-triazol-4-yl)methyl)amino)quinoline-3-carbonitrile] | 0.017 | 0.154 |  |  | 
